Reference: publication PMC10726441, “Discovery of Tumor-Targeted 6-Methyl Substituted Pemetrexed and Related Antifolates with Selective Loss of RFC Transport” (ACS Medicinal Chemistry Letters, 2023)
“Also recorded” adds a separate entry of the source.

Test system: KB tumor cells; thymidylate and de novo purine nucleotide biosynthesis
Assay: Metabolite protection experiments in KB cells (thymidine, adenosine, glycine, AICA)
Type: cell-based, human
Conditions: for targeted pathway from metabolite protection (in words): thymidine 10 μM, adenosine 60 μM, glycine 130 μM, AICA 320 μM
Procedure: To identify the targeted pathways/enzymes of these pyrrolo[2,3-d]pyrimidine compounds (1, 2, 4–8), in vitro growth inhibition assays were performed with KB tumor cells in glycine-, adenosine-, and thymidine-free media without additions or in the presence of thymidine (10 μM), adenosine (60 μM), or glycine (130 μM) (both singly and in various combinations; Figure 4).[18],[23]−[25],[28]−[31],[42],[44],[45] For de novo purine biosynthesis inhibitors, protection was also tested with AICA (320 μM), which is metabolized to AICA ribonucleotide (substrate for the AICARFTase reaction, thus circumventing GARFTase).
Figure 4 Metabolite protection experiments. […] Cell densities were measured with a fluorescence assay[25] and a fluorescence plate reader. Results were normalized to cell densities in the absence of drug. Results shown are mean values plus/minus standard errors from triplicate experiments. Experimental details are described in the Supporting Information, and the methods have been previously published.[18],[23]−[25],[28]−[31],[42],[44]
(Vancouver, B.C). IGROV1, KB and IOSE 7576 cells were cultured in complete FF-RPMI with 10% fetal bovine serum and 100 units/mL penicillin/100 μg/mL streptomycin, and 2 mM L-glutamine. Cell lines were tested for Mycoplasma by PCR using a Mycloplasma testing kit (Venor™ GeM Mycoplasma Detection Kit, Sigma). Frozen stocks were generated from authenticated Mycoplasma-free cultures.
For cell proliferation assays, CHO, KB, NCI-IGROV1 and IOSE 7576 cells were plated in 96-well dishes at densities ranging from 2500-5000 cells/well in 200 μL media and treated with a range of inhibitors spanning 0-1000 nM. Experiments with RT16, D4, IGROV1, IOSE 7576 and KB cells used folate-free RPMI 1640 (FF RPMI) media with 10% dialyzed fetal bovine serum and 100 units/mL penicillin/100 μg/mL streptomycin, supplemented with 2 nM leucovorin and 2 mM L-glutamine. FR-mediated drug uptake was assessed in parallel incubations including 200 nM folic acid. For R2/PCFT4, PC43-10 and R2 CHO cells, the medium was FF-RPMI supplemented with 10% dialyzed fetal bovine serum, 100 units/mL penicillin/100 μg/mL streptomycin, 25 nM leucovorin and 2 mM L-glutamine.
Cells were treated over a 96 h period at 37° C with 5% CO2 and relative cell numbers quantified using the CellTiter-blue cell viability assay (Promega, Madison, WI) and a fluorescence plate reader. Raw data were exported to Excel for analysis and the results were plotted using Graphpad Prism 6.0. Determinations of IC50s were made […]
assays have been previously described.7, 8, 11, 12, 15-20 […]

Q: Which “targeted pathway from metabolite protection (in words)” value (“targeted pathway” below) does the source give for Nc1nc2[nH]cc(CCc3ccc(C(=O)N[C@@H](CCC(=O)O)C(=O)O)c(F)c3)c2c(=O)[nH]1 [Compound 4] here?
A: inhibited both thymidylate and purine nucleotide biosynthesis

Q: With Nc1nc2[nH]cc(CCc3ccc(C(=O)N[C@@H](CCC(=O)O)C(=O)O)cc3)c2c(=O)[nH]1 [Compound 1, reference compound] as the compound, how does the “targeted pathway” value read?
A: inhibited both thymidylate and purine nucleotide biosynthesis

Q: For Nc1nc2[nH]cc(CCCc3ccc(C(=O)N[C@@H](CCC(=O)O)C(=O)O)cc3)c2c(=O)[nH]1 [Compound 2], which “protection by glycine / mitochondrial C1 metabolism (in words)” value (glycine 130 μM added to adenosine and thymidine) is on record?
A: addition of glycine provided greater protection than did adenosine and thymidine alone; also recorded: inhibition of mitochondrial C1 metabolism was also suggested

Q: What about the “targeted pathway” value of the same compound?
A: inhibited both thymidylate and purine nucleotide biosynthesis
